Measurements reported in ChEMBL document CHEMBL5223106, “Targeting non-alcoholic fatty liver disease: Design, X-ray co-crystal structure and synthesis of 'first-in-kind' inhibitors of serine/threonine kinase25” (Bioorg Med Chem Lett, 2022).
Active and inactive are the calls of the source. The calls are words filed in the database; no cut-off is given here.

Key:
[1] = target: T1, Serine/threonine-protein kinase 25 (Homo sapiens, UniProt O00506); assay: Inhibition of STK25 (unknown origin) by FRET assay
[2] = target: T1, Serine/threonine-protein kinase 25; assay: Inhibition of STK25 (unknown origin)
Target sequence in this assay (O00506 whole entry): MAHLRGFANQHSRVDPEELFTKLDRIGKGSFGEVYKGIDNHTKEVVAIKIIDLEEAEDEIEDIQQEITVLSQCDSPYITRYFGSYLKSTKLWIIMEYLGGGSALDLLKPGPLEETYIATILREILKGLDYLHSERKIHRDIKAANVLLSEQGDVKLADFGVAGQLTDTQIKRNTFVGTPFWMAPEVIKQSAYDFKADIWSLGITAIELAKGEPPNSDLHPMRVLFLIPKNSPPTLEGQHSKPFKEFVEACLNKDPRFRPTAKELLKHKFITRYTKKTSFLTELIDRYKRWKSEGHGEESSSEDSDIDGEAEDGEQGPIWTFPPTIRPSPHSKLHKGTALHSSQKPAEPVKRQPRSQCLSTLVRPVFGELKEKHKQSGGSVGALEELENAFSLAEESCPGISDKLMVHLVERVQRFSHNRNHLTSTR

[3] = Clearance in mouse microsomes; assay type: ADME, Microsome
[4] = Clearance in human microsomes; assay type: ADME, Microsome
[5] = target: T1, Serine/threonine-protein kinase 25; assay: Inhibition of STK25 (unknown origin) by cellular target engagement assay
Target sequence in this assay (O00506 whole entry): as above

[6] = Permeability of the compound in human Caco-2 cells at 10 uM; assay type: ADME, cell-based; conditions: caco-2, 10 µM
[7] = Efflux ratio of permeability across basolateral to apical side over apical to basolateral side in human Caco-2 cells; assay type: ADME, cell-based
[8] = Plasma protein binding in mouse plasma assessed as free fraction; assay type: ADME, cell-free
[9] = Cytotoxicity against human HepG2 cells assessed as cell growth inhibition; assay type: toxicity, cell-based
[10] = Solubility of compound; assay type: physicochemical

CC(C)(C)c1cc(NC(=O)c2ccc(C(=O)N3CCCC3)cc2)n[nH]1
IC50 [1]: 5160 nM

CC(C)(C)c1cc(NC(=O)c2nnn3c2CO[C@H](Cc2ccccc2)C3)n[nH]1
inhibition [1]: inactive

Cc1ccc(C(=O)Nc2cc(C(C)(C)C)n[nH]2)cc1-n1cc(-c2cncc(N3CCOCC3)c2)nn1
IC50 [2]: 12 nM

CCCCOc1ccc(C(=O)Nc2cc(C(C)(C)C)[nH]n2)cc1
IC50 [1]: 616 nM

CC(C)(C)c1cc(NC(=O)c2nnn3c2CO[C@@H](c2ccccc2)C3)n[nH]1
inhibition [1]: inactive

CC(C)(C)c1cc(NC(=O)c2nnn3c2CO[C@@H](Cc2ccccc2)C3)n[nH]1
inhibition [1]: inactive

CC(C)(C)c1cc(NC(=O)c2ccc(S(=O)(=O)NC3CCCC3)cc2)n[nH]1
IC50 [1]: 865 nM

CC(C)(C)c1cc(NC(=O)c2ccc(S(=O)(=O)N3CCCC3)cc2)n[nH]1
CL [3]: 145 mL/min/g
CL [4]: 75 mL/min/g
IC50 [1]: 228 nM
IC50 [5]: 211 nM
permeability [6]: 100%
efflux ratio [7]: 1
fraction unbound [8]: 0.26
IC50 [9]: > 100000 nM
solubility [10]: > 100 µM

O=C(Nc1c[nH]nc1-c1nc2cc(CN3CCOCC3)ccc2[nH]1)NC1CC1 [AT-9283]
IC50 [2]: 460 nM

CC(C)(C)c1cc(NC(=O)c2nnn3c2CO[C@H](c2ccccc2)C3)n[nH]1
inhibition [1]: inactive
